From US7238525B2, “Strategy for leukemia therapy” (The Regents of the University of California, priority 2000, dated 2007)

Tests used:
[1] = tested on: Bcr-Abl-KD; assay: Nuclear localization by immunofluorescence in transfected Abl−/− fibroblasts (Bcr-Abl-KD); assay type: cell-based; settings: LMB alone
[2] = tested on: K562 cells; assay: Cell survival assay, K562 cells; assay type: cell-based; settings: 72 hours treatment, then drug removal
Description: […]. […] […].
After 48 h (TonB, TonB210) or 72 h (K562), live cells were counted with the Trypan blue exclusion assay. Cells were then washed extensively with PBS and placed in growth media. Trypan blue cell counts were repeated every 48 h and followed by feeding with fresh media. Cell counts were stopped when the number of viable cells was higher than the number of cells originally plated.

[3] = tested on: TonB cells; settings: 48 hours treatment, with IL-3
[4] = human, in vivo; cited from earlier work
[5] = tested on: untransfected cells; assay: TUNEL assay, untransfected cells; assay type: cell-based; settings: STI571 alone, BCR-Abl-NES experiment
Excerpt: It is known that activation of the nuclear Abl tyrosine kinase by DNA damage can contribute to the induction of apoptosis (Gong et al., 1999; Wang, 2000). Similarly, when translocated into the nucleus, Bcr-Abl kinase can activate apoptosis. […]. […] However, removal of the inhibitor while maintaining the Bcr-Abl in the nucleus strongly stimulated apoptosis. […]. With this protocol, between 70–80% of the Bcr-Abl expressing cells were positive for TUNEL staining, whereas the apoptosis rate remained at the 10% level with untransfected cells (Table 2). By expressing Bcr-Abl-KD and treating cells with LMB alone, it was confirmed that an active nuclear Bcr-Abl kinase was required to induce apoptosis.
Cell Death Assays. […] […].

[6] = tested on: human leukemic cells; settings: in vivo STI571 treatment; cited from earlier work
[7] = human, in vivo; cited from earlier work; remark: listed apart in the source
[8] = tested on: K562 cells; assay: Tyrosine-phosphorylated proteins in total cell lysates, K562; settings: at the end of drug treatments
Description: The tyrosine-phosphorylated proteins in total cell lysates were examined at the end of drug treatments and then before their precipitous death.
Transfection and Immunoblotting. […] Immunoblots were performed using 1 μg/ml 4G10 monoclonal antibody against phosphotyrosine (Upstate Biotechnology, Waltham, Mass.), or 1 μg/ml monoclonal antibody against Abl (8E9) (Pharmingen, San Diego, Calif.).

SMILES | nuclear fraction of Bcr-Abl-KD [1] | viable cell numbers [2] | viable cell numbers [3] | toxicity observed in a phase I clinical trial [4] | TUNEL-positive untransfected cells [5] [%] | tumors eradicated [6] | maximum tolerated dose [7] | overall levels of tyrosine-phosphorylated proteins [8]
CCC(=C/[C@H](C)C/C=C/C(C)=C/[C@@H](C)C(=O)[C@@H](C)[C@H](O)[C@@H](C)C/C(C)=C/C(=O)O)/C=C/[C@@H]1OC(=O)C=C[C@@H]1C [LMB, leptomycin B] | 25–35% | initial decline in cell number | caused a reduction in cell numbers | neuronal toxicity | – | – | – | –
Cc1ccc(NC(=O)c2ccc(CN3CCN(C)CC3)cc2)cc1Nc1nccc(-c2cccnc2)n1 [STI571, 4-[(4-methyl-piperazinyl)methyl]-N-[4-methyl-3-[[4-(3-pyrodnyl)-2-pyrimidinyl]amin]phenyl]benzamide methanesul-fonate] | – | initial death | – | – | 3 | 70–100% | No maximum tolerated dose has been identified | decreased
